According to the NIST ThermoML archive (doi:10.1021/je1002237):

Assay: xn = mol fraction of the nth substance listed
Conditions: 101 kPa, Liquid

CCOS(=O)(=O)[O-].CCn1cc[n+](C)c1 [1-ethyl-3-methylimidazolium ethyl sulfate] + CC1COC(=O)O1
x2 = 0
Conditions	mass density [kg/m3]
278.15 K	1251.04
283.15 K	1247.5
288.15 K	1244.04
293.15 K	1240.66
298.15 K	1237.27
303.15 K	1233.89
308.15 K	1230.51

O [water] + CCOS(=O)(=O)[O-].CCn1cc[n+](C)c1
x1 = 1
Conditions	mass density [kg/m3]
278.15 K	999.96
283.15 K	999.69

CCOS(=O)(=O)[O-].CCn1cc[n+](C)c1 [1-ethyl-3-methylimidazolium ethyl sulfate] + CO
mass density [kg/m3]
Conditions	278.15 K	283.15 K	288.15 K	293.15 K	298.15 K	303.15 K	308.15 K
x2 = 0	1251.04	1247.5	1244.04	1240.66	1237.27	1233.89	1230.51
x2 = 0.005	1250.51	1246.96	1243.52	1240.13	1236.74	1233.36	1229.98
x2 = 0.0097	1250.12	1246.57	1243.14	1239.75	1236.36	1232.97	1229.59
x2 = 0.015	1249.8	1246.24	1242.81	1239.42	1236.02	1232.63	1229.24
x2 = 0.0252	1248.78	1245.23	1241.82	1238.42	1235.02	1231.63	1228.25
x2 = 0.0403	1247.44	1243.88	1240.48	1237.07	1233.67	1230.27	1226.88
x2 = 0.0598	1245.64	1242.13	1238.72	1235.31	1231.89	1228.49	1225.09
x2 = 0.08	1243.77	1240.29	1236.86	1233.44	1230.02	1226.61	1223.2
x2 = 0.1001	1241.79	1238.35	1234.91	1231.47	1228.05	1224.63	1221.22
x2 = 0.15	1236.8	1233.34	1229.88	1226.42	1222.98	1219.54	1216.12
x2 = 0.2	1231.24	1227.75	1224.26	1220.78	1217.32	1213.87	1210.42
x2 = 0.3	1218.1	1214.56	1211.02	1207.5	1203.99	1200.5	1197.01
x2 = 0.4	1201.9	1198.3	1194.72	1191.15	1187.59	1184.05	1180.51
x2 = 0.4999	1180.84	1177.18	1173.54	1169.91	1166.29	1162.69	1159.1
x2 = 0.6	1153.55	1149.82	1146.1	1142.4	1138.71	1135.03	1131.37
x2 = 0.7	1115.57	1111.73	1107.91	1104.11	1100.31	1096.53	1092.76
x2 = 0.8	1059.76	1055.79	1051.82	1047.87	1043.92	1039.98	1036.05
x2 = 0.9	971.1	966.89	962.68	958.49	954.29	950.1	945.91
x2 = 0.95	902.84	898.44	894.05	889.67	885.26	880.86	876.46
x2 = 0.98	849.24	844.69	840.15	835.63	831.05	826.49	821.91
